Tests used:
[1] = test system: HBEGF (Δ TM)-ALP; assay: Cleavage of HBEGF (Δ TM)-ALP due to HAST (western blotting); type: biochemical, human; details: recombinant HAST, 37° C. overnight
Method: 293EBNA cell strain was sowed in a density of 9×10^6 cells/10 cm dish, cultured overnight, and then transfected with the human HBEGF-expressing plasmid: pEF9-HBEGF (Δ TM)-ALP prepared in 1). 12 μg of the pEF9-HBEGF (Δ TM)-ALP was subjected to a lipofection with 75 μL of Lipofectamine 2000 (produced by GIBCO-BRL). The lipofection was carried out according to an appended manual. 72 hour later, the cells were peeled with a pipette, and then centrifuged at 3000 rpm at 4° C. for five minutes. The lysate was dissolved in 12 mL of M-PER (produced by PIERCE Corp.), subjected to an SDS-polyacrylamide gel electrophoresis under a non-reducing condition, and then blotted on a nitrocellulose membrane (produced by BIO-RAD Corp.).
The product blotted on the nitrocellulose membrane was treated with 3% BSA-containing PBS at 4° C. overnight and then reacted with the anti-human HB-EGF antibody (produced by GENZYME Corp., an antibody recognizing an EGFR-binding site) diluted with 1% BSA-containing PBS in a concentration of 1 μg/mL, at room temperature for one hour. The nitrocellulose membrane was washed with 0.05% Tween 20-containing PBS three times, and then reacted with Swine Anti-Goat Ig's-ALP antibody (produced by BIOSOURCE Corp.) diluted with 1% BSA-containing PBS in a concentration of 1 μg/mL at room temperature for one hour. […]

[2] = test system: IL-8 promoter; assay: IL-8 promoter luciferase reporter assay in BEAS-2B; type: cell-based, human; details: HAST 300 mU/mL, 3 hours
Method: About 1.5 Kb and 162 bp of the promoter domains (Mukaida N. et al., J. Immunol., 143: 1366-1371, 1989) of IL-8 were cloned with LA-PCR (produced by Takara Shuzo Co.) using human genome DNA as a template, a forward primer: IL8-1481; […], a forward primer: IL8-162; […], a reverse primer: IL8LUC-R; […]. The PCR was carried out at 98° C. for 20 sec, at 58° C. for one minute and at 68° C. for 5 minutes in 25 cycles. The obtained DNA fragments of the promoter domains of about 1.5 Kb and about 0.25 Kb were named IL8-1481 and IL8-162, respectively.
A DNA fragment containing from ATG (translation-starting codon) to NarI site in the luciferase gene of pGL3-Basic (produced by Promega Corp.) was amplified by a PCR method using a forward primer: IL8LUC-F; […] and a reverse primer: LUC2087R; […]. This luciferase gene N-terminal DNA fragment was ligated to the IL8-1481 and the IL8-162 by a PCR method to obtain the PCR fragments IL8-1481-Luc (about 2 Kb) and IL8-162-Luc (about 800 bp). […]
The luciferase activity was assayed with Pica Gene Dual•Renilla reniformis (produced by Toyo Ink Co.,). […] First, 100 μL of Pica Gene luminescent reagent II was added, and the luminescence due to the firefly luciferase was assayed with a luminometer (LUMINOUS CT-9000D (produced by DIA-IATRON Corp.)). […]

## HAST: human airway-specific trypsin-like enzyme; propeptide moiety bound to trypsin-like protein moiety via a disulfide bond
[1]
  band reactive with the anti-human HB-EGF antibody: shifted to a low molecular weight
[2]
  production of the IL-8 at a transcription level (reporter activity): promoted

— patent publication US20040038369A1, “Airway-specific trypsin-like enzymes and method of using the same” (priority 2000, published 2004)
